This note sets out measurements from patent US11903911B1, “Method of treating obesity by reversal of Na/K-Atpase inhibition” (Marshall University Research Corporation, priority 2019, dated 2024).

For one assay, the system named is SGLT1. Kind of assay: Na-glucose co-transport (SGLT1) uptake in villus cell BBMV of L-NAME-treated obese rats. It counts as in vivo, rat. Particulars: obese rats (OZR) treated for at least one week with L-NAME; FIG. 21. The source says:
Animal models and treatment. Zucker rats (Strain code: 185 (Obese), 186 (Lean); 18 wks) obtained from Charles River Laboratories International, Inc. were used as a genetic model of obesity, and C57BL/6 mice (B6) (The Jackson Laboratory) and Sprague Dawley rats (Strain code: 400; Charles River Laboratories International, Inc.) were used as a diet-induced model of obesity. B6 mice were fed with either a low-fat diet (LFD) (10% calories from fat; Cat. No: 58124, LabDiet, USA) or high-fat diet (HFD) (60% calories from fat; Cat. No: 58126, LabDiet, USA) starting at 4 weeks of age until they reached 20 weeks of age. Sprague Dawley rats were fed the above-mentioned diets from the age of 12 weeks for 6 weeks to induce obesity. […] Studies determined that 10 mg dose of L-NAME was the lowest dose to consistently affect transporter activities and was therefore used in all subsequent experiments. […]
Uptake studies in intact villus cells and BBMVs. […] Filters with intact villus cells were dissolved in 5 ml scintillation fluid (Ecoscint, National Diagnostics), and radioactivity was determined in a Beckman 6500 Beta Scintillation Counter. […] The uptake experiment results were expressed as Na-glucose co-transport uptake in nanomoles per milligram protein at 60 sec for mice or 90 sec for rats. […]

The subject of assay [1] is Cl:HCO3 exchange (DRA/PAT1). Kind of assay: Cl/HCO3 exchange uptake in BBMV of L-NAME-treated obese rats. The assay is classed as in vivo, rat. Particulars: obese rats (OZR) treated for at least one week with L-NAME; FIG. 22. The source says: (§1) Animal models and treatment. Zucker rats (Strain code: 185 (Obese), 186 (Lean); 18 wks) obtained from Charles River Laboratories International, Inc. were used as a genetic model of obesity, and C57BL/6 mice (B6) (The Jackson Laboratory) and Sprague Dawley rats (Strain code: 400; Charles River Laboratories International, Inc.) were used as a diet-induced model of obesity. B6 mice were fed with either a low-fat diet (LFD) (10% calories from fat; Cat. No: 58124, LabDiet, USA) or high-fat diet (HFD) (60% calories from fat; Cat. No: 58126, LabDiet, USA) starting at 4 weeks of age until they reached 20 weeks of age. Sprague Dawley rats were fed the above-mentioned diets from the age of 12 weeks for 6 weeks to induce obesity. To inhibit constitutive nitric oxide production in both mice and rats, the animals were first treated with either a 10 or 25 mg/kg per day dosage of used N^G-nitro-L-arginine methyl ester (L-NAME). Studies determined that 10 mg dose of L-NAME was the lowest dose to consistently affect transporter activities and was therefore used in all subsequent experiments. […] Cl/HCO3 exchange uptake was measured in BBMV by rapid filtration technique as previously described. […] Results were calculated as the HCO3 dependent DIDS sensitive Cl uptake.

The subject of the next assay is NHE3. Kind of assay: Na/H exchange (NHE3) uptake in BBMV of L-NAME-treated obese rats. It counts as in vivo, rat. Conditions: obese rats treated with L-NAME; FIG. 23.
From the text: as §1, with “Na/H” for “Cl/HCO3”, “The results” for “Results”, “expressed” for “calculated”, “Na/H exchange in picomoles per milligram protein at 60 sec.” for “the HCO3 dependent DIDS sensitive Cl uptake.”

The test system of the next assay is transporter activities. Kind of assay: L-NAME dose finding on intestinal transporter activities. The assay is classed as in vivo. Conditions: 10 or 25 mg/kg per day tested in mice and rats. The source says: Animal models and treatment. Zucker rats (Strain code: 185 (Obese), 186 (Lean); 18 wks) obtained from Charles River Laboratories International, Inc. were used as a genetic model of obesity, and C57BL/6 mice (B6) (The Jackson Laboratory) and Sprague Dawley rats (Strain code: 400; Charles River Laboratories International, Inc.) were used as a diet-induced model of obesity. B6 mice were fed with either a low-fat diet (LFD) (10% calories from fat; Cat. No: 58124, LabDiet, USA) or high-fat diet (HFD) (60% calories from fat; Cat. No: 58126, LabDiet, USA) starting at 4 weeks of age until they reached 20 weeks of age. Sprague Dawley rats were fed the above-mentioned diets from the age of 12 weeks for 6 weeks to induce obesity. To inhibit constitutive nitric oxide production in both mice and rats, the animals were first treated with either a 10 or 25 mg/kg per day dosage of used N^G-nitro-L-arginine methyl ester (L-NAME). Studies determined that 10 mg dose of L-NAME was the lowest dose to consistently affect transporter activities and was therefore used in all subsequent experiments. For the diet-induced mice obesity model, LFD and HFD fed B6 mice were treated with this dose from the age of 20 weeks, and Sprague Dawley rats were treated from the age of 17 wks for 1 week. All the experimental animals were handled and euthanized according to Marshall University IACUC regulations.

The structures appear in SMILES notation. Entries after “also recorded” stand apart in the source; their conditions may differ.

Take `COC(=O)[C@@H](N)CCCNC(=N)N[N+](=O)[O-]` [L-NAME, N^G-nitro-L-arginine methyl ester]: in the assay on SGLT1, the “effect on the stimulation of SGLT1 (glucose absorption) in obese rats” value is given as “reversed the stimulation of SGLT1”. For the same molecule, the “effect on the stimulation of Cl:HCO3 (NaCl absorption) in obese rats” value in assay [1] is recorded as “reversed the stimulation of Cl:HCO3”. In addition, the “effect on NHE3 activity in obese rats” value in the assay on NHE3 is “did not affect NHE3; also recorded: does not affect NHE3 activity”. Besides, the “lowest dose to consistently affect transporter activities” value in the assay with transporter activities stood at 10 mg.
